{
  "source": "patent US20180264094A1",
  "about": "“PERSONALISED IMMUNOGENIC PEPTIDE IDENTIFICATION PLATFORM” (priority 2017, published 2018)",
  "key": {"[1]": {"details": "in vivo; cited from earlier work"}, "[2]": {"test_system": "glioblastoma multiforme (GBM)", "details": "cited from earlier work"}, "[3]": {"test_system": "EGFRvIII", "details": "cited from earlier work"}, "[4]": {"test_system": "metastatic ovarian adenocarcinoma", "assay": "MRI of tumor lesions of patient treated with PIT vaccine (Table 28)", "type": "in vivo, human", "details": "before PIT vaccine", "description": "• Disease was confined primarily to liver and lymph nodes. The use of MRI limits detection of lung (pulmonary) metastasis • May 2016-January 2017: Olaparib treatment • Dec. 25, 2016 (before PIT vaccine treatment) There was dramatic reduction in tumor burden with confirmation of response obtained at FU2 • January-March 2017—TOPO protocol (topoisomerase) • Apr. […] 21 2017 START PIT • Jul. […] 26, 2017—CBP+Gem+Avastin • Sep."}, "[5]": {"details": "published Disease Control Rate (ORR where no DCR data), RECIST; cited from earlier work"}, "[6]": {"test_system": "Vaccine antigen specific CTL responses", "details": "published immune response rate (CTL) of the clinical study population; cited from earlier work"}, "[7]": {"details": "cited from earlier work"}, "[8]": {"test_system": "T cell responses", "details": "percentage of study subjects with positive T cell responses measured in the clinical trials; cited from earlier work"}},
  "note": "Entries after “also recorded” stand apart in the source; their conditions may differ. Where no end group is shown, it is not given here.",
  "data": [
    {"compound": "Adalimumab", "values": [
      {"measurement": "ADA-related adverse event", "setting": "[1]", "result": "anti-drug antibodies and treatment failure"}
    ]},
    {"compound": "LEEKKGNYVVTDHC (also: conjugated to KLH) [Rindopepimut, 13-amino-acid peptide vaccine spanning the EGFRvIII mutation with additional C-terminal cysteine]", "values": [
      {"measurement": "HR (overall survival)", "setting": "[2]; Rindopepimut group versus control group, 95% CI 0.79-1.30", "result": 1.01},
      {"measurement": "median overall survival", "setting": "[2]; phase III, Rindopepimut and temozolomide (n=371)", "result": 20.1, "unit": "months"},
      {"measurement": "Responders", "setting": "[3]; Clinical trial (Phase II), cellular immune response by DTH reaction test, EGFRvIII-expressing GBM patients", "result": "3/18"},
      {"measurement": "Response rate", "setting": "[3]; Clinical trial (Phase II), cellular immune response by DTH reaction test", "result": 16.6, "unit": "%"},
      {"measurement": "patients developing cellular immune response assessed by DTH reaction test", "setting": "[3]; phase II, peptide conjugated to KLH, intradermal, newly diagnosed EGFRvIII-expressing GBM", "result": "3 out of 18"}
    ]},
    {"compound": "Epoetin", "values": [
      {"measurement": "ADA-related adverse event", "setting": "[1]", "result": "Antibody-mediated pure red cell aplasia"}
    ]},
    {"compound": "Basiliximab", "values": [
      {"measurement": "ADA-related adverse event", "setting": "[1]", "result": "anaphylaxis"}
    ]},
    {"compound": "CC[C@@]1(O)C(=O)OCc2c1cc1n(c2=O)Cc2cc3c(CN(C)C)c(O)ccc3nc2-1", "note": "[Hycamtin]", "values": [
      {"measurement": "Lesion response (% Δ from BL)", "setting": "[4]; SUM, FU3, after TOPO protocol", "result": "−68.9", "unit": "%"},
      {"measurement": "Lesion response (% Δ from BL)", "setting": "[4]; TL1, FU3 (Apr. 6, 2017), after TOPO protocol", "result": "−44.8", "unit": "%"},
      {"measurement": "Lesion response (% Δ from BL)", "setting": "[4]; TL2, FU3, after TOPO protocol", "result": "−47.1", "unit": "%"},
      {"measurement": "Lesion response (% Δ from BL)", "setting": "[4]; TL3, FU3, after TOPO protocol", "result": "−62.0", "unit": "%"},
      {"measurement": "Lesion response (% Δ from BL)", "setting": "[4]; TL4, FU3, after TOPO protocol", "result": "−100.0", "unit": "%"}
    ]},
    {"compound": "ImMucin: anti-MUC1 signal peptide vaccine, ref 15; likely the 21 mer MTPGTQSPFFLLLLLTVLTVV", "values": [
      {"measurement": "DCR", "setting": "[5]", "result": 73, "unit": "%"},
      {"measurement": "Clinical Trial Response Rate", "setting": "[6]", "result": 90, "unit": "%"}
    ]},
    {"compound": "Erythropoietin", "values": [
      {"measurement": "ADA-related adverse event", "setting": "[1]", "result": "pure red cell aplasia"}
    ]},
    {"compound": "Pegloticase", "values": [
      {"measurement": "ADA-related adverse event", "setting": "[1]", "result": "anti-dug antibody, treatment failure"}
    ]},
    {"compound": "Thrombopoietin [TPO]", "values": [
      {"measurement": "ADA-related adverse event", "setting": "[1]", "result": "thrombocitopenia"},
      {"measurement": "most immunogenic region by State of Art class II HLA restricted epitope identification", "setting": "[7]; EpiVax/Genentech, US20040209324 A1", "result": "C-terminal end of TPO"},
      {"measurement": "immunotoxic region, experimental proof in published literature", "setting": "[7]; in vivo", "result": "N-terminal end of TPO"},
      {"measurement": "immunogenicity / anti-drug antibodies (ADA)", "setting": "[7]; patients treated with TPO drug", "result": "highly immunogenic protein drug causing toxicity in many patients; also recorded: Most individuals treated with TPO drug made anti-drug antibodies (ADA)"}
    ]},
    {"compound": "SSKALQRPV (additional peptide 11) [9 mer peptide vaccine, source antigen Bcr-Abl]", "values": [
      {"measurement": "Response rate (Clinical Trials)", "setting": "[8]", "result": 0, "unit": "%"}
    ]},
    {"compound": "GRGSTTTNYLLDRDDYRNTSD (additional peptide 2) [21 mer peptide vaccine, source antigen ADA17]", "values": [
      {"measurement": "Response rate (Clinical Trials)", "setting": "[8]", "result": 11, "unit": "%"}
    ]},
    {"compound": "QRPPFSQLHRFLADALNT (additional peptide 6) [18 mer peptide vaccine, source antigen DDR1]", "values": [
      {"measurement": "Response rate (Clinical Trials)", "setting": "[8]", "result": 17, "unit": "%"}
    ]},
    {"compound": "Factor-IX", "values": [
      {"measurement": "ADA-related adverse event", "setting": "[1]", "result": "anaphylaxis"}
    ]},
    {"compound": "Ipilimumab", "values": [
      {"measurement": "DCR", "setting": "[5]", "result": 60, "unit": "%"},
      {"measurement": "Clinical Trial Response Rate", "setting": "[6]", "result": 72, "unit": "%"}
    ]},
    {"compound": "Etanercept", "values": [
      {"measurement": "ADA-related adverse event", "setting": "[1]", "result": "no apparent effect on safety"}
    ]},
    {"compound": "OKT3", "values": [
      {"measurement": "ADA-related adverse event", "setting": "[1]", "result": "anaphylaxis"}
    ]},
    {"compound": "O=C(c1cc(Cc2n[nH]c(=O)c3ccccc23)ccc1F)N1CCN(C(=O)C2CC2)CC1", "note": "[Olaparib]", "values": [
      {"measurement": "Lesion response (% Δ from BL)", "setting": "[4]; SUM of target lesions, FU1, during Olaparib treatment", "result": "−66.3", "unit": "%"},
      {"measurement": "Lesion response (% Δ from BL)", "setting": "[4]; SUM, FU2, Olaparib treatment", "result": "−76.0", "unit": "%"},
      {"measurement": "Lesion response (% Δ from BL)", "setting": "[4]; TL1, FU1, patient, MRI, during Olaparib treatment", "result": "−56.1", "unit": "%"},
      {"measurement": "Lesion response (% Δ from BL)", "setting": "[4]; TL1, FU2 (Dec. 25, 2016), Olaparib treatment", "result": "−44.4", "unit": "%"},
      {"measurement": "Lesion response (% Δ from BL)", "setting": "[4]; TL2, FU1, during Olaparib treatment", "result": "−100.0", "unit": "%"},
      {"measurement": "Lesion response (% Δ from BL)", "setting": "[4]; TL2, FU2, Olaparib treatment", "result": "−100.0", "unit": "%"},
      {"measurement": "Lesion response (% Δ from BL)", "setting": "[4]; TL3, FU1, during Olaparib treatment", "result": "−59.4", "unit": "%"},
      {"measurement": "Lesion response (% Δ from BL)", "setting": "[4]; TL3, FU2, Olaparib treatment", "result": "−62.3", "unit": "%"},
      {"measurement": "Lesion response (% Δ from BL)", "setting": "[4]; TL4, FU1, during Olaparib treatment", "result": "−65.8", "unit": "%"},
      {"measurement": "Lesion response (% Δ from BL)", "setting": "[4]; TL4, FU2, Olaparib treatment", "result": "−100.0", "unit": "%"}
    ]},
    {"compound": "MMNLMQPKTQQTYTYD (additional peptide 1) [16 mer peptide vaccine, source antigen JUP]", "values": [
      {"measurement": "Response rate (Clinical Trials)", "setting": "[8]", "result": 0, "unit": "%"}
    ]},
    {"compound": "Ustekinumab", "values": [
      {"measurement": "ADA-related adverse event", "setting": "[1]", "result": "anti-ustekinumab antibodies, affected"}
    ]},
    {"compound": "LKKGAADGGKLDGNAKLNRSLK (additional peptide 3) [22 mer peptide vaccine, source antigen BAP31]", "values": [
      {"measurement": "Response rate (Clinical Trials)", "setting": "[8]", "result": 11, "unit": "%"}
    ]},
    {"compound": "Abciximab", "values": [
      {"measurement": "ADA-related adverse event", "setting": "[1]", "result": "anaphylaxis"}
    ]},
    {"compound": "ALDQCKTSCALMQQHYDQTSCFSSP (additional peptide 7) [25 mer peptide vaccine, source antigen ITGB8]", "values": [
      {"measurement": "Response rate (Clinical Trials)", "setting": "[8]", "result": 28, "unit": "%"}
    ]},
    {"compound": "Infliximab", "values": [
      {"measurement": "ADA-related adverse event", "setting": "[1]", "result": "anaphylaxis"}
    ]},
    {"compound": "recombinant factor VIII", "values": [
      {"measurement": "ADA-related adverse event", "setting": "[1]", "result": "anaphylaxis"}
    ]},
    {"compound": "RYRKPDYTLDDGHGLLRFKST (additional peptide 5) [21 mer peptide vaccine, source antigen Abl-2]", "values": [
      {"measurement": "Response rate (Clinical Trials)", "setting": "[8]", "result": 17, "unit": "%"}
    ]},
    {"compound": "FPPKDDHTLKFLYDDNQRPYPP (additional peptide 4) [22 mer peptide vaccine, source antigen TOP2A]", "values": [
      {"measurement": "Response rate (Clinical Trials)", "setting": "[8]", "result": 11, "unit": "%"}
    ]},
    {"compound": "MTPGTQSPFFLLLLLTVLTVV (additional peptide 10)", "values": [
      {"measurement": "Response rate (Clinical Trials)", "setting": "[8]", "result": 90, "unit": "%"}
    ]},
    {"compound": "YLEPGPVTA", "values": [
      {"measurement": "Response rate (Clinical Trials)", "setting": "[8]", "result": 28, "unit": "%"}
    ]}
  ]
}
